Experimental findings from US11998523B2, “Ascorbic acid and quinone compounds for treating Chagas disease” (IC-MedTech Corp., priority 2016, dated 2024) are described below.

Like-named read-outs stand apart in the source and are kept apart here.

What all share (type): cell-based
The test system of assay [1] is parasitic forms of Trypanosoma cruzi. The assay can be described thus: Total ROS production (H2DCFDA labeling). The settings on record: H2O2 20.0 μM. How it is done:
FIGS. 2A, 2B, and 2C show the effects of VC and VK3 on the total reactive oxygen species (ROS) production in parasitic forms of Trypanosoma cruzi, where the parasites were treated with VC and VK3, alone and combined, for 24 hrs using H2DCFDA labeling; and where epimastigote forms (FIG. 2A) were treated with 0.61 mM VC and 1.90 μM VK3, alone and combined; trypomastigote forms (FIG. 2B) were treated with 0.20 mM VC and 0.35 μM VK3, alone and combined; and amastigote forms (FIG. 2C) were treated with 0.18 mM VC and 0.30 μM VK3, alone and combined. H2O2 was used as a positive control. Total ROS were measured as an increase in fluorescence that is caused by the conversion of nonfluorescent dye to fluorescent DCF. The results are expressed as the mean fluorescence (in arbitrary units [A.U.]±SE) of at least three independent experiments. The symbol * indicates significant differences compared with the control group (untreated cells; p≤0.05). The production of total reactive oxygen species (total ROS) was evaluated in parasitic forms after exposure to VC and VK3 using the probe H2DCFDA. Epimastigote forms (1×10^6 parasites/mL) were evaluated after exposure to 0.61 mM VC and 1.90 μM VK3, alone and in combination, for 24 hrs at 28° C. Trypomastigote forms (1×10^7 parasites/mL) were evaluated after exposure to 0.20 mM VC and 0.35 μM VK3, alone and in combination, for 24 hrs at 37° C. in a 5% CO2 atmosphere. Amastigote forms (1×10^7 parasites/mL) were evaluated after exposure to 0.18 mM VC and 0.30 μM VK3, alone and in combination, for 24 hrs at 37° C. in a 5% CO2 atmosphere. Hydrogen peroxide (H2O2; 20.0 μM) was used as a positive control. Afterward, the parasites were centrifuged, washed, and resuspended in PBS. Parasites were loaded with 10.0 μM of the permeant probe H2DCFDA in the dark for 45 min.

In assay [2] the test system is intracellular amastigote forms of T. cruzi (Y strain) in LLCMK2 cells. The assay can be described thus: Activity against intracellular amastigote forms in LLCMK2 cells (survival index, Combination Index method). As to conditions: Trypanosoma cruzi. How it is done:
All of the experiments were performed using the Y strain of T. cruzi. Pereira et al., Folia Clin. Biol. 1953, 20, 191-208. Epimastigote forms were axenically maintained at 28° C. with weekly transfers in liver infusion tryptose (LIT) medium supplemented with 10% heat-inactivated FBS, pH 7.4. Camargo, Rev. Inst. Med. Trop. São Paulo. 1964, 6, 93-100. Trypomastigote and amastigote forms were obtained from the previously infected monolayers of LLCMK2 cells (epithelial cells of monkey kidney [Macaca mulatta]; CCL-7; American Type Culture Collection, Rockville, MD, USA) in DMEM supplemented with 2 mM L-glutamine and 10% FBS, buffered with sodium bicarbonate in a 5% CO2 air mixture at 37° C. […] The number of infected cells and amastigotes was determined by randomly counting 200 cells. The results were calculated as the survival index, which was obtained by multiplying the percentage of infected cells by the number of amastigotes per infected LLCMK2 cell and then determining the percentage of inhibition. […] The data were calculated and mathematically expressed as a Combination Index: CI=(IC50 VK3 combined/IC50 VK3 alone)+(IC50 VC combined/IC50 VC alone) for epimastigotes and amastigotes and CI=(EC50 VK3 combined/EC50 VK3 alone)+(EC50 VC combined/EC50 VC alone) for trypomastigotes. […]

For assay [3], the system named is Epimastigote forms of T. cruzi (Y strain). The assay can be described thus: Trypanocidal effect on epimastigote forms (counting in Neubauer hemocytometer, Combination Index method). As to conditions: Trypanosoma cruzi. As for the experimental part: (§1) All of the experiments were performed using the Y strain of T. cruzi. Pereira et al., Folia Clin. Biol. 1953, 20, 191-208. Epimastigote forms were axenically maintained at 28° C. with weekly transfers in liver infusion tryptose (LIT) medium supplemented with 10% heat-inactivated FBS, pH 7.4. Camargo, Rev. Inst. Med. Trop. São Paulo. 1964, 6, 93-100. Trypomastigote and amastigote forms were obtained from the previously infected monolayers of LLCMK2 cells (epithelial cells of monkey kidney [Macaca mulatta]; CCL-7; American Type Culture Collection, Rockville, MD, USA) in DMEM supplemented with 2 mM L-glutamine and 10% FBS, buffered with sodium bicarbonate in a 5% CO2 air mixture at 37° C. […] The number of epimastigote forms was determined by counting in a Neubauer hemocytometer after 96 hrs. The data were calculated and mathematically expressed as a Combination Index: CI=(IC50 VK3 combined/IC50 VK3 alone)+(IC50 VC combined/IC50 VC alone) for epimastigotes and amastigotes and CI=(EC50 VK3 combined/EC50 VK3 alone)+(EC50 VC combined/EC50 VC alone) for trypomastigotes. […] The data were also graphically expressed as isobolograms by plotting concentrations of vitamins that alone or in combination induced activity against 50% of the forms of the parasite.

Assay [4] deals with Trypomastigote forms of T. cruzi (Y strain). The assay can be described thus: Trypanocidal effect on trypomastigote forms (viability by mobility, Pizzi-Brener method, Combination Index method). The settings on record: Trypanosoma cruzi. How it is done: as §1, with “After incubation, the viability” for “The number”, “the parasites” for “epimastigote forms”, “examining mobility under” for “counting in”, “light microscope (Olympus CX31) using the Pizzi-Brener method. […]” for “Neubauer hemocytometer after 96 hrs.”

`OO` [H2O2, Hydrogen peroxide]: the results for the “increase in ROS production (positive control)” value in assay [1] (amastigotes), in assay [1] (epimastigotes) and in assay [1] (trypomastigotes) were 60%, 69% and 77%, respectively.

Take `O=C1O[C@H]([C@@H](O)CO)C(O)=C1O` [VC, L-ascorbic acid]: the IC50 in assay [2] (LLC-MK2, combined with 0.30 μM VK3, read-out: VC concentration in the combination with synergistic effect on 50% of the parasites (IC50 VC combined)) is 180 µM; in assay [3] (combined with 1.90 μM VK3, read-out: VC concentration in the combination with synergistic effect on 50% of the parasites (IC50 VC combined)), 610 µM. Moreover, the EC50 in assay [4] (combined with 0.35 μM VK3, read-out: VC concentration in the combination with synergistic effect on 50% of the parasites (EC50 VC combined)) worked out at 200 µM.

As for `CC1=CC(=O)c2ccccc2C1=O` [VK3, 2-methyl-1,4-naphthalenedione], the IC50 in assay [2] (LLC-MK2, combined with 0.18 mM VC, read-out: VK3 concentration in the combination with synergistic effect on 50% of the parasites (IC50 VK3 combined)) worked out at 0.3 µM; in assay [3] (.61 mM VC, read-out: VK3 concentration in the combination with synergistic effect on 50% of the parasites (IC50 VK3 combined)) it was 1.9 µM. Besides, the EC50 in assay [4] (combined with 0.20 mM VC, read-out: VK3 concentration in the combination with synergistic effect on 50% of the parasites (EC50 VK3 combined)) was determined as 0.35 µM.
